Assays:
[1] = DPPH radical scavenging activity of sample and control solutions; type: biochemical; conditions: for Scavenging activity: 0.2 mmol/L DPPH, 30 min, 517 nm, n = 3
Excerpt: In the DPPH molecule, due to the presence of multiple electron-withdrawing —NO2 and large π bonds of the benzene ring, nitrogen free radical is stabilized. Its methanol solution is purple and has a maximum absorption peak at 517 nm. After the addition of an antioxidant, DPPH captures an electron to be paired with the free electron, and the purple fades and turns into a yellow substance. The absorption at 517 nm disappears, and the degree of fading is quantitatively related to the number of electrons it captures. Based on this principle, a spectrophotometer is used to detect the change of the absorbance of the DPPH radical and the sample solution, and the ability of the sample to provide hydrogen atoms and scavenge free radicals can be measured.
Preparation of DPPH Solution: Measuring Exact Amount of 1,1-diphenyl-2-picryl hydrazyl (DPPH) and dissolving in methanol to prepare a 0.2 mmol/L DPPH Solution, Stored at 0° C. in Dark
Preparation of sample solutions: Vitamin C (positive control), bergenin thiodipripionic acid ester (sample), bergenin (control), thiodipropionic acid (control), mixture of bergenin and thiodipropionic acid (control). The sample solution was serially diluted with acetonitrile, and four groups of controls were separately dissolved in a test tube with a certain amount of methanol to prepare the same concentration gradient as the sample. Four corresponding groups of control solutions were prepared in the same way.
2 mL of the sample solution (Table 1: B), 2 mL 0.2 mmol/L DPPH solution was added, the mixture was mixed and reacted at room temperature in dark for 30 minutes, and methanol was then added to adjust final volume. The absorbance Ai was measured at 517 nm. 2 mL control solution and 2 mL methanol were mixed, and the absorbance Aj was measured. 2 mL DPPH solution and 2 mL methanol were mixed, and the absorbance A0 was measured.
2 mL of the control solutions (Table 1: C, D, E), 2 mL 0.2 mmol/L DPPH solution was added, the mixture was mixed and reacted at room temperature in dark for 30 minutes, and methanol was then added to adjust final volume. The absorbance Ai was measured at 517 nm. 2 mL control solution and 2 mL methanol were mixed, and the absorbance Aj was measured. 2 mL DPPH solution and 2 mL methanol were mixed, and the absorbance A0 was measured. The scavenging activity of the sample solution and control solutions is calculated according to the following calculation formula. Scavenging activity (%)=[1−(Ai−Aj)/Ao]*100%

[2] = DPPH radical scavenging activity of Ganoderma lucidum spore oil with and without bergenin thiodipripionic acid ester; type: biochemical; conditions: added at 0.2%, 0.4%, 0.6%

SMILES: COc1c(O)cc2c(c1O)C1OC(COC(=O)CCSCCC(=O)OCC3OC4c5c(cc(O)c(OC)c5O)C(=O)OC4C(O)C3O)C(O)C(O)C1OC2=O (centres unmarked) [B, bis((3,4,8,10-tetrahydroxy-9-methoxy-6-oxo-2,3,4,4a,6,10b-hexahydropyrano[3,2-c]isochromen-2-yl)methyl) 3,3′-thiodipropionate]
- Scavenging activity ([1]; 0.04 mg/ml): 28.01%
- Scavenging activity ([1]; 0.08 mg/ml): 37.78%
- Scavenging activity ([1]; 0.16 mg/ml): 51.33%
- Scavenging activity ([1]; 0.83 mg/ml): 60.22%
- Scavenging activity ([1]; 1.66 mg/ml): 76.33%
- Scavenging activity ([1]; 8.28 mg/ml): 82.56%
- Scavenging activity ([1]; 16.56 mg/ml): 95.67%
- Scavenging activity ([1]; 24.84 mg/ml): 96.22%
- Scavenging activity ([1]; 33.12 mg/ml): 96.22%
- scavenging ability compared with bergenin (C), thiodipropionic acid (D) and their 2:1 mixture (E) ([1]; at the same concentration): significantly better
- effect on antioxidant capacity of Ganoderma lucidum spore oil [2]: improves the antioxidant capacity of Ganoderma lucidum spore oil

SMILES: COc1c(O)cc2c(c1O)[C@@H]1O[C@H](CO)[C@@H](O)[C@H](O)[C@H]1OC2=O [C, Bergenin]
- Scavenging activity ([1]; 0.04 mg/ml): 8.63%
- Scavenging activity ([1]; 0.08 mg/ml): 12.25%
- Scavenging activity ([1]; 0.16 mg/ml): 19.80%
- Scavenging activity ([1]; 0.83 mg/ml): 25.59%
- Scavenging activity ([1]; 1.66 mg/ml): 41.86%
- Scavenging activity ([1]; 8.28 mg/ml): 59.12%
- Scavenging activity ([1]; 16.56 mg/ml): 94.78%
- Scavenging activity ([1]; 24.84 mg/ml): 94.87%
- Scavenging activity ([1]; 33.12 mg/ml): 95.18%

SMILES: O=C(O)CCSCCC(=O)O [D, Thiodipropionic acid]
- Scavenging activity ([1]; 0.04 mg/ml): 1.96%
- Scavenging activity ([1]; 0.08 mg/ml): 8.73%
- Scavenging activity ([1]; 0.16 mg/ml): 9.07%
- Scavenging activity ([1]; 0.83 mg/ml): 9.18%
- Scavenging activity ([1]; 1.66 mg/ml): 9.41%
- Scavenging activity ([1]; 8.28 mg/ml): 10.56%
- Scavenging activity ([1]; 16.56 mg/ml): 11.83%
- Scavenging activity ([1]; 24.84 mg/ml): 13.09%
- Scavenging activity ([1]; 33.12 mg/ml): 14.47%

SMILES: O=C1O[C@H]([C@@H](O)CO)C(O)=C1O [Vc, Vitamin C]
- Scavenging activity ([1]; 0.04 mg/ml): 94.90%
- Scavenging activity ([1]; 0.08 mg/ml): 94.90%
- Scavenging activity ([1]; 0.16 mg/ml): 95.03%
- Scavenging activity ([1]; 0.83 mg/ml): 95.03%
- Scavenging activity ([1]; 1.66 mg/ml): 98.67%
- Scavenging activity ([1]; 8.28 mg/ml): 98.92%
- Scavenging activity ([1]; 16.56 mg/ml): 99.00%
- Scavenging activity ([1]; 24.84 mg/ml): 99.00%
- Scavenging activity ([1]; 33.12 mg/ml): 99.00%

— patent US10487094B1, “Bergenin thiodipropionic acid ester with antioxidant activity and a method of improving the antioxidant property of ganoderma lucidum spore oil using the same” (SHAANXI UNIVERSITY OF SCIENCE AND TECHNOLOGY, priority 2018, dated 2019)
